This note sets out measurements from patent US20260250289A1, “BICYCLIC HETEROCYCLES AND THEIR USE AS WRN INHIBITORS” (Novartis AG, priority 2022, published 2026).

Broadly, the pIC50 is the negative decadic logarithm of the IC50, by convention in mol/L. A lower pIC50 goes with a high IC50.

For one assay, the system named is DLD1-WRN-KO cells. Kind of assay: Proliferation assay DLD1-WRN-KO (CellTiterGlo, off-target effects). Type of assay: cell-based. The following applies: 96 hours, geometric mean of at least 2. In short, it runs like this: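 DLD1 cells with CRISPR knockout of WRN were exposed overnight-seeded to eight 3-fold compound dilutions (0.1% DMSO) for 96 h at 37 °C. Viability was read as ATP by CellTiterGlo luminescence against a day-0 plate, giving GI50 and residual viability at top concentration.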

Another assay has as its system SW48 cells. The assay can be described thus: Proliferation assay SW48 (CellTiterGlo). In kind it is cell-based. The note with it: Homo sapiens, SW48, 96 h, SW48 colon carcinoma cells, 96 hours, CellTiterGlo; geometric mean of at least 2; read-out: Proliferation Assay SW48 GI50. An excerpt:
The colon carcinoma cell lines SW48 (RRID: CVCL_1724), HCT 116 (RRID: CVCL_0291) and SNU-407 (RRID: CVCL_5058) were obtained from ATCC. The WRN-knockdown insensitive colon carcinoma cell line DLD-1 (RRID: CVCL_0248) was obtained from the Korean Cell Line Bank (KCLB), and used to generate a derivative in which the endogenous WRN gene copies were knocked out by CRISPR-mediated editing using standard CRISPR methods. The resulting cell line, DLD1-WRN-KO, was used to assess potential off-target compound effects.
SW48, SNU-407 and DLD1-WRN-KO cells were cultured in growth medium composed of RPMI-1640 (Amimed Cat #1-41F22-1), 2 mM L-Glutamine (Amimed Cat #5-10K50), 10 mM HEPES (Gibco Cat #15630-056), 1 mM sodium pyruvate (Amimed Cat #5-60F00-H), 1× Penicillin-Streptomycin (Amimed Cat #4-01F00-H) and 10% fetal calf serum (Amimed Cat #2-01F30-G, Lot #LB11566P). HCT 116 cells were cultured in growth medium composed of McCoys 5A (Amimed catalog #1-18F01-1), 2 mM L-Glutamine (Amimed Cat #5-10K50), 1× Penicillin-Streptomycin (Amimed Cat #4-01F00-H) and 10% fetal calf serum (Amimed Cat #2-01F30-G, Lot #LB11566P). All cells were maintained at 37° C. in a humidified 5% CO2 incubator.
Following filtration through a Steriflip-NY 20 μm filter (Millipore Cat #SCNY00020), trypsinized cells were seeded in 100 microliters growth medium at 2,000 (SW48) or 1,500 (SNU-407, DLD1-WRN-KO, HCT 116) cells/well into white, clear-bottom 96-well plates (Costar Cat #3903). Three replicate plates were prepared for each compound treatment condition. In addition, one plate (termed “day 0”) was prepared to quantify the number of viable cells at the time of compound addition. Following overnight incubation at 37° C. in a humidified 5% CO2 atmosphere, eight 3-fold serial dilutions of a given compound stock (obtained at a concentration of 10 mM in DMSO and stored at 4° C.) were dispensed directly into each of the triplicate assay plates using a HP 300D non-contact Digital Dispenser (TECAN). The final concentration of DMSO was normalized to 0.1% in all wells. 96 hours after compound addition, cellular ATP levels as a surrogate for cell viability was assessed following addition of 50 microliters CellTiterGlo (Promega Cat #G7573) reagent and luminescence quantification on a MPLEX multi-mode plate-reader (TECAN) following a 10 minute incubation at room temperature. The number of viable cells in the “day 0” plate were quantified identically on the day of compound addition.
For data analysis, the assay background signal that was determined in wells containing medium, but no cells, was subtracted from all other data points prior to further calculations. The extent of growth inhibition and potential cell kill was assessed by comparing the ATP levels (measured using CellTiterGlo, Promega) in compound-treated cells with those present at the time of compound addition. To this end, the following conditional concept was programmatically applied in HELIOS, an in-house software applying a multi-step decision tree to arrive at optimal concentration response curve fits (Gubler et al, SLAS DOI: 10.1177/2472555217752140) to calculate % growth (% G) for each compound-treated well: % G=(T−V0)/V0))*100 when T<V0, and % G=(T−V0)/(V−V0)))*100 when T≥V0, where V0 is the viability level at time of compound addition, while V and T represent vehicle-control and compound-treated viability levels, respectively, at the end of the compound incubation. 100%, 0% and −100% signify absence of growth inhibition, growth stasis, and complete cell kill, respectively. Compound concentrations leading to half-maximal growth inhibition (GI50) and residual cell viability at the highest tested compound concentration (Data (cmax), expressed in percent) were routinely calculated. Data analysis can also be carried out using commercially available software designed to derive IC50 values using 4-parameter fits (e.g. GraphPad Prism, XL fit). […]
On the technique in general: In ATP-based viability assays light output follows the ATP content of the culture.

The target in assay [1] is T1, WRN helicase (aa N517-P1238) (Homo sapiens, UniProt Q14191).
T1 construct: The core helicase motif of the WRN protein (aa N517-P1238) was produced for this assay; His (N); ZZ (N); 3C protease cleavage site (N); made in house; host or cells: Sf21 insect cells (baculovirus; virus and BIICs made in SF9)
T1 sequence (Q14191 517-1238): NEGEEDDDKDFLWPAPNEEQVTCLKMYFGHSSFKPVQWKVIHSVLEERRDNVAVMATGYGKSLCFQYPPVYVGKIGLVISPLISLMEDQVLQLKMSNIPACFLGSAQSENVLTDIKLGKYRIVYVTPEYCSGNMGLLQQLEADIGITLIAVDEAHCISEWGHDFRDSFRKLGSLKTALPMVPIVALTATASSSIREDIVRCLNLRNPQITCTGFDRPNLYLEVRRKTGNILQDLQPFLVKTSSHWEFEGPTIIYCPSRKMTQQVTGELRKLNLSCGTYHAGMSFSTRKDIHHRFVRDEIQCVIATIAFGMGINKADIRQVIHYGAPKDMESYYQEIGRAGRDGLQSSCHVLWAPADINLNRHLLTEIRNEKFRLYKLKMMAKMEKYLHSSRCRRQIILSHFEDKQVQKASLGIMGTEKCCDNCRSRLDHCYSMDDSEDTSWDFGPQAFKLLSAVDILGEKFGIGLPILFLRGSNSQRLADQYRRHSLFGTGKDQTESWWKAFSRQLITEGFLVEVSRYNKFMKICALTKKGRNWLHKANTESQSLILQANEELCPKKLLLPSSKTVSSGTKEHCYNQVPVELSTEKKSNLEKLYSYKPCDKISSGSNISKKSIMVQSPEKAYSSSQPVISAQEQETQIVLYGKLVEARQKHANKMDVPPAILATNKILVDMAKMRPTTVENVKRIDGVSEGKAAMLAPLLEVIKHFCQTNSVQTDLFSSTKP
Kind of assay: WRN ATPase assay (DNA dependent ATP hydrolysis, ADP-Glo). Type of assay: biochemical. The following applies: 3 hours pre-incubation, 300 micromolar ATP, FLAP26 DNA; geometric mean of at least 2. The essentials: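 DNA-dependent ATP hydrolysis detected as ADP by ADP-Glo luminescence, using 300 μM ATP, 0.2 nM FLAP26 substrate and 10 nM WRN aa N517-P1238 (Tris pH 7.5 buffer, 2 mM MgCl2, 50 mM NaCl). IC50s fitted from normalized duplicate half-log dilutions; reported as geometric means of at least 2 replicates.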
(In general: In ADP-Glo the light output rises with the ADP produced.)

Structures are written as SMILES. pIC50: −log10 of the molar value.

For the molecule `Cc1c(N2CCN(C(=O)c3cc(F)ccc3O)CC2)c(=O)n2nc(C3=CCOCC3)nc2n1CC(=O)Nc1ccc(C(F)(F)F)cc1` [Example 17, 2-(2-(3,6-dihydro-2H-pyran-4-yl)-6-(4-(5-fluoro-2-hydroxybenzoyl)piperazin-1-yl)-5-methyl-7-oxo-[1,2,4]triazolo[1,5-a]pyrimidin-4(7H)-yl)-N-(4-(trifluoromethyl)phenyl)acetamide], the GI50 in the assay with DLD1-WRN-KO cells was determined as 8000 nM; in the assay on SW48 cells it was 900 nM. Further, the pIC50 in assay [1] was 7.30.

Consider `CCc1c(N2CCN(C(=O)c3c(O)ccc4ncccc34)CC2)c(=O)n2nc(C3=CCOCC3)nc2n1CC(=O)Nc1ccc(C(F)(F)F)cc1C` [Example 18, 2-(2-(3,6-dihydro-2H-pyran-4-yl)-5-ethyl-6-(4-(6-hydroxyquinoline-5-carbonyl)piperazin-1-yl)-7-oxo-[1,2,4]triazolo[1,5-a]pyrimidin-4(7H)-yl)-N-(2-methyl-4-(trifluoromethyl)phenyl)acetamide], for which the GI50 with DLD1-WRN-KO cells is over 10000 nM; in the assay with SW48 cells it was 200 nM. This molecule also gave a pIC50 in assay [1] of 7.22.

Consider `Cc1c(N2CCN(C(=O)c3ccnc(F)c3O)CC2)c(=O)n2nc(C3=CCOCC3)nc2n1CC(=O)Nc1ccc(C(F)(F)F)cc1` [Example 19, 2-(2-(3,6-dihydro-2H-pyran-4-yl)-6-(4-(2-fluoro-3-hydroxyisonicotinoyl)piperazin-1-yl)-5-methyl-7-oxo-[1,2,4]triazolo[1,5-a]pyrimidin-4(7H)-yl)-N-(4-(trifluoromethyl)phenyl)acetamide], for which the GI50 in the assay on DLD1-WRN-KO cells and with SW48 cells was over 10000 nM in each case. For the same molecule, in assay [1], the pIC50 was 7.22.

For `Cc1nc2ccccc2c(C(=O)N2CCN(c3c(C)n(CC(=O)Nc4ccc(C(F)(F)F)cc4)c4nc(C5=CCOCC5)nn4c3=O)CC2)c1O` [Example 20, 2-(2-(3,6-dihydro-2H-pyran-4-yl)-6-(4-(3-hydroxy-2-methylquinoline-4-carbonyl)piperazin-1-yl)-5-methyl-7-oxo-[1,2,4]triazolo[1,5-a]pyrimidin-4(7H)-yl)-N-(4-(trifluoromethyl)phenyl)acetamide], the values for the GI50 with DLD1-WRN-KO cells and in the assay with SW48 cells were over 10000 nM and 1000 nM, respectively. Moreover, the pIC50 in assay [1] was 7.05.

Turning to `Cc1c(N2CCN(C(=O)c3cc(F)cnc3O)CC2)c(=O)n2nc(C3=CCOCC3)nc2n1CC(=O)Nc1ccc(C(F)(F)F)cc1` [Example 21, 2-(2-(3,6-dihydro-2H-pyran-4-yl)-6-(4-(5-fluoro-2-hydroxynicotinoyl)piperazin-1-yl)-5-methyl-7-oxo-[1,2,4]triazolo[1,5-a]pyrimidin-4(7H)-yl)-N-(4-(trifluoromethyl)phenyl)acetamide], the GI50 in the assay with DLD1-WRN-KO cells and with SW48 cells was over 10000 nM throughout. In assay [1], this molecule had a pIC50 of 7.00.

Take `Cc1c(N2CCN(C(=O)c3cncc(F)c3O)CC2)c(=O)n2nc(C3=CCOCC3)nc2n1CC(=O)Nc1ccc(C(F)(F)F)cc1` [Example 22, 2-(2-(3,6-dihydro-2H-pyran-4-yl)-6-(4-(5-fluoro-4-hydroxynicotinoyl)piperazin-1-yl)-5-methyl-7-oxo-[1,2,4]triazolo[1,5-a]pyrimidin-4(7H)-yl)-N-(4-(trifluoromethyl)phenyl)acetamide]: the GI50 in the assay with DLD1-WRN-KO cells and with SW48 cells was over 10000 nM throughout. This molecule gave a pIC50 in assay [1] of 7.00.

For `CCc1c(N2CCN(C(=O)c3ccnc(C)c3O)CC2)c(=O)n2nc(C3=CCCCO3)nc2n1CC(=O)Nc1ccc(C(F)(F)F)cc1Cl` [Example 23, N-(2-chloro-4-(trifluoromethyl)phenyl)-2-(2-(3,4-dihydro-2H-pyran-6-yl)-5-ethyl-6-(4-(3-hydroxy-2-methylisonicotinoyl)piperazin-1-yl)-7-oxo-[1,2,4]triazolo[1,5-a]pyrimidin-4(7H)-yl)acetamide], the GI50 in the assay on DLD1-WRN-KO cells was over 10000 nM; in the assay on SW48 cells, 300 nM. The pIC50 in assay [1] is 6.70.

In the case of `Cc1c(N2CCN(C(=O)c3cnccc3O)CC2)c(=O)n2nc(C3=CCOCC3)nc2n1CC(=O)Nc1ccc(C(F)(F)F)cc1` [Example 24, 2-(2-(3,6-dihydro-2H-pyran-4-yl)-6-(4-(4-hydroxynicotinoyl)piperazin-1-yl)-5-methyl-7-oxo-[1,2,4]triazolo[1,5-a]pyrimidin-4(7H)-yl)-N-(4-(trifluoromethyl)phenyl)acetamide], the GI50 with DLD1-WRN-KO cells and with SW48 cells was over 10000 nM in each case. Moreover, the pIC50 in assay [1] is 6.70.

Consider `Cc1cccc(O)c1C(=O)N1CCN(c2c(C)n(CC(=O)Nc3ccc(C(F)(F)F)cc3)c3nc(C4=CCOCC4)nn3c2=O)CC1` [Example 25, 2-(2-(3,6-dihydro-2H-pyran-4-yl)-6-(4-(2-hydroxy-6-methylbenzoyl)piperazin-1-yl)-5-methyl-7-oxo-[1,2,4]triazolo[1,5-a]pyrimidin-4(7H)-yl)-N-(4-(trifluoromethyl)phenyl)acetamide], for which the GI50 in the assay with DLD1-WRN-KO cells is over 10000 nM; with SW48 cells it was 4000 nM. For the same molecule, in assay [1], the negative-log IC50 (pIC50) was 6.70.

On to `Cc1cc(C(=O)N2CCN(c3c(C)n(CC(=O)Nc4ccc(C(F)(F)F)cc4)c4nc(C5=CCOCC5)nn4c3=O)CC2)c(O)cn1` [Example 26, 2-(2-(3,6-dihydro-2H-pyran-4-yl)-6-(4-(5-hydroxy-2-methylisonicotinoyl)piperazin-1-yl)-5-methyl-7-oxo-[1,2,4]triazolo[1,5-a]pyrimidin-4(7H)-yl)-N-(4-(trifluoromethyl)phenyl)acetamide], for which the GI50 in the assay on DLD1-WRN-KO cells and in the assay with SW48 cells was over 10000 nM each time. In addition, the negative-log IC50 (pIC50) in assay [1] is 6.52.

As to `Cc1ccnc(O)c1C(=O)N1CCN(c2c(C)n(CC(=O)Nc3ccc(C(F)(F)F)cc3)c3nc(C4=CCOCC4)nn3c2=O)CC1` [Example 27, 2-(2-(3,6-dihydro-2H-pyran-4-yl)-6-(4-(2-hydroxy-4-methylnicotinoyl)piperazin-1-yl)-5-methyl-7-oxo-[1,2,4]triazolo[1,5-a]pyrimidin-4(7H)-yl)-N-(4-(trifluoromethyl)phenyl)acetamide], the GI50 in the assay with DLD1-WRN-KO cells and with SW48 cells was over 10000 nM each time. The same molecule showed a negative logarithm of the IC50 (pIC50) in assay [1] of 6.52.

As to `Cc1c(N2CCN(C(=O)c3c(F)ccnc3O)CC2)c(=O)n2nc(C3=CCOCC3)nc2n1CC(=O)Nc1ccc(C(F)(F)F)cc1` [Example 28, 2-(2-(3,6-dihydro-2H-pyran-4-yl)-6-(4-(4-fluoro-2-hydroxynicotinoyl)piperazin-1-yl)-5-methyl-7-oxo-[1,2,4]triazolo[1,5-a]pyrimidin-4(7H)-yl)-N-(4-(trifluoromethyl)phenyl)acetamide], the GI50 in the assay with DLD1-WRN-KO cells and in the assay on SW48 cells was over 10000 nM each time. For the same molecule, the pIC50 in assay [1] is 6.30.
